The source made the active and inactive calls. No cut-off for these calls is given here.
Assays:
HCT-8 = experiment: Antiproliferative activity against human vincristine-resistant HCT-8/VCR cells assessed as cell viability incubated for 48 hrs by MTT assay; format: functional, cell-based; conditions: HCT-8, 48 h
[1] = Selectivity ratio of IC50 for cytotoxicity against HLF cells assessed as reduction in cell viability to IC50 for cytotoxicity against human A549 cells assessed as reduction in cell viability; format: toxicity, cell-based; conditions: HLF cells versus A549 cells
A549 [2] = experiment: Induction of cell death in human A549 cells assessed as increased mitochondrial membrane density at 10 nM for 12 hrs by TEM analysis; format: functional, cell-based
[3] = Toxicity in human A549 cells xenografted in athymic nude BALB/c nude mouse assessed as morphological changes in liver at 10 mg/kg, ip measured after 30 days by H and E staining based histological analysis; format: organism-based; conditions: in vivo, 720 h, time 30 day
[4] = Acute oral toxicity in rat assessed as death at 550 mg/kg measured over 8 hours daily for 14 days; format: organism-based; conditions: in vivo, 336 h, time 14 day
A549 [5] = experiment: Induction of ferroptosis in human A549 cells assessed as depletion of GSH levels at 10 nM upto 12 hrs; format: functional, cell-based
[6] = Tmax in ICR mouse at 1 mg/kg, iv single administration measured for 24 hrs post treatment by LC-MS/MS analysis; format: ADME, organism-based; conditions: in vivo
Tubulin (Homo sapiens) [7] = target: T1, Tubulin (Homo sapiens) (UniProt P68371+Q9H4B7+P0DPH7+P68366+Q13509+Q71U36+P04350+Q3ZCM7+P07437+P68363+Q9BQE3+Q6PEY2+Q13885+Q9BVA1+Q9BUF5); experiment: Inhibition of tubulin polymerization (unknown origin) by microplate reader analysis; format: protein-complex assay; conditions: dose 5-0.16 µM, DDE = dose-dependent effect
A549 [8] = experiment: In vivo antitumor activity against human A549 cells xenografted in athymic nude BALB/c mouse assessed as tumor volume at 10 mg/kg measured after 30 days (reference value: 1503.3 mm^3); format: functional; conditions: time 30 day
HUVEC = experiment: Vascular disruptive effect in HUVEC cells assessed as reduction in tube formation at 10 nM measured after 6 to 9 hrs; format: functional, cell-based; conditions: Homo sapiens, time 6-9 hrs
A2780 [9] = experiment: Antiproliferative activity against human A2780 cells assessed as cell viability incubated for 48 hrs by MTT assay; format: functional, cell-based; conditions: A2780, 48 h
[10] = Cytotoxicity against human MCF-10A cells assessed as reduction in cell viability; format: toxicity, cell-based
A549 [11] = experiment: Antiproliferative activity against human A549 cells assessed as inhibition of cell proliferation incubated for 2 hrs by CCK-8 assay; format: functional, cell-based; conditions: DDE = dose-dependent effect
A549 [12] = experiment: Induction of ferroptosis in human A549 cells assessed as accumulation of intracellular ROS incubated for 24 hrs by DCFH-DA staining based fluorescence microscopy; format: functional, cell-based; conditions: dose 5-10 nM, DDE = dose-dependent effect
A549 [13] = experiment: Cell cycle arrest in human A549 cells assessed as downregulation of Cdc2 expression at 5 to 20 nM incubated for 24 to 48 hrs by Western blot analysis; format: functional, cell-based; conditions: dose 5-20 nM, time 24-48 hrs
Tubulin (Homo sapiens) [14] = target: T1, Tubulin (Homo sapiens); experiment: Inhibition of [3H]colchicine binding to tubulin (unknown origin) at 0.3725 uM by competitive binding assay relative to control; format: protein-complex assay
Tubulin (Homo sapiens) [15] = target: T1, Tubulin (Homo sapiens); experiment: Inhibition of [3H]colchicine binding to tubulin (unknown origin) at 2.5 uM by competitive binding assay relative to control; format: protein-complex assay
Tubulin [16] = experiment: Inhibition of tubulin polymerization (unknown origin) assessed as fluorescence intensity emission at 410 nm for 60 mins; format: protein-complex assay, Homo sapiens
A549 [17] = experiment: Induction of apoptosis in human A549 cells assessed as cell viability pretreated with ferroptosis inhibitor desferoxamine for 24 hrs followed by incubation with compound at 20 nM and measured after 48 hrs by CCK-8 assay; format: functional, cell-based
[18] = target: T2, Phospholipid hydroperoxide glutathione peroxidase GPX4 (Homo sapiens) (UniProt P36969); experiment: Inhibition of GPX4 in human A549 cells assessed as decrease in GPX4 protein […] at 5 to 20 uM for 24 hrs by Western blotting analysis; format: cell-based; conditions: dose 5-20 µM
T2 sequence (whole entry): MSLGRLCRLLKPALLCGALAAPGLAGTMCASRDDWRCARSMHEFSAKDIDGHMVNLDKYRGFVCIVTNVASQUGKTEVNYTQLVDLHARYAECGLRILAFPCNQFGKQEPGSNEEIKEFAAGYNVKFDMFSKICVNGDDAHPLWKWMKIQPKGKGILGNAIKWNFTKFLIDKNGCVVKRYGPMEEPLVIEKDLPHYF

[19] = Selectivity ratio of IC50 for cytotoxicity against HUVEC cells assessed as reduction in cell viability to IC50 for cytotoxicity against human A549 cells assessed as reduction in cell viability; format: toxicity, cell-based; conditions: HUVEC cells versus A549 cells
Tubulin [20] = experiment: Inhibition of [3H]colchicine binding to tubulin (unknown origin) by competitive binding assay; format: protein-complex assay, Homo sapiens
Tubulin (Homo sapiens) [21] = target: T1, Tubulin (Homo sapiens); experiment: Induction of microtubule disruption in human A549 cells assessed as shrunken spindle shaped microtubule structure at 5 to 20 uM incubated for 12 hrs by immunofluorescence based laser scanning confocal microscopic analysis; format: cell-based; conditions: dose 5-20 µM
A549 [22] = experiment: Antiproliferative activity against human A549 cells assessed as cell viability incubated for 48 hrs by MTT assay; format: functional, cell-based; conditions: A549, 48 h
[23] = AUC (0 to infinity) in ICR mouse at 10 mg/kg, po single administration measured for 24 hrs post treatment by LC-MS/MS analysis; format: ADME, organism-based; set-up: time 24 hrs, dose 10 mg/kg, route po; conditions: in vivo
A549 [24] = experiment: Cell cycle arrest in human A549 cells assessed as increase in accumulation in G2/M phase at 5 to 20 nM by PI staining based flow cytometry analysis; format: functional; conditions: dose 5-20 nM, time 24-48 hrs, TDE = time-dependent effect
A2780 [25] = experiment: Antiproliferative activity against human paclitaxel-resistant A2780/TAX cells assessed as cell viability incubated for 48 hrs by MTT assay; format: functional, cell-based; conditions: A2780, 48 h
[26] = Cmax in ICR mouse at 1 mg/kg, iv single administration measured for 24 hrs post treatment by LC-MS/MS analysis; format: ADME, organism-based; set-up: time 24 hrs, dose 1 mg/kg, route iv; conditions: in vivo
A549 [27] = experiment: Induction of cell death in human A549 cells assessed as vanished mitochondrial cristae at 10 nM for 12 hrs by TEM analysis; format: functional, cell-based
Tubulin (Homo sapiens) [28] = target: T1, Tubulin (Homo sapiens); experiment: Induction of microtubule disruption in human A549 cells assessed as abnormal chromosomes at 5 to 20 uM incubated for 12 hrs by immunofluorescence based laser scanning confocal microscopic analysis; format: cell-based; conditions: dose 5-20 µM
A549 [29] = experiment: Resistance index, ratio of IC50 for antiproliferative activity against human adriamycin-resistant A549/ADR cells to IC50 for antiproliferative activity against human A549 cells; format: functional
SMMC-7721 = experiment: Antiproliferative activity against human SMMC-7721 cells assessed as inhibition of cell proliferation incubated for 2 hrs by CCK-8 assay; format: functional, cell-based; conditions: DDE = dose-dependent effect
A2780 [30] = experiment: Antiproliferative activity against human A2780 cells assessed as inhibition of cell proliferation incubated for 2 hrs by CCK-8 assay; format: functional, cell-based; conditions: DDE = dose-dependent effect
[31] = Selectivity ratio of IC50 for cytotoxicity against human L02 cells assessed as reduction in cell viability to IC50 for cytotoxicity against human A549 cells assessed as reduction in cell viability; format: toxicity, cell-based; conditions: L02 cells versus A549 cells
A549 [32] = experiment: In vivo antitumor activity against human A549 cells xenografted in athymic nude BALB/c mouse assessed as tumor weight at 10 mg/kg measured after 30 days (reference value: 1 gram); format: functional; conditions: time 30 day

C=C(c1cc(OC)c(OC)c(OC)c1)c1ccc(OC)c(O)c1NC(=O)CO
IC50 (HCT-8): 70 nM | selectivity ratio [1]: 135 | Activity (A549 [2]): Active | Activity [3]: Non-Toxic | Activity [4]: Toxic | Activity (A549 [5]): Active | Tmax [6]: 4.8 min | inhibition (Tubulin (Homo sapiens) [7]): Dde | Activity (A549 [8]): 321.1 mm3 | Activity (HUVEC): Active | IC50 (A2780 [9]): 20 nM | IC50 [10]: 540 nM | Activity (A549 [11]): Dde | Activity (A549 [12]): Dde | Activity (A549 [13]): Active | inhibition (Tubulin (Homo sapiens) [14]): 4.07% | inhibition (Tubulin (Homo sapiens) [15]): 64.8% | IC50 (Tubulin [16]): 580 nM | Activity (A549 [17]): Active | Activity [18]: Active | selectivity ratio [19]: 4 | IC50 (Tubulin [20]): 1130 nM | Activity (Tubulin (Homo sapiens) [21]): Active | IC50 (A549 [22]): 10 nM | AUC [23]: 2463.76 h/ng/mL | Activity (A549 [24]): Tde | IC50 (A2780 [25]): 40 nM | Cmax [26]: 871 ng/mL | Activity (A549 [27]): Active | Activity (Tubulin (Homo sapiens) [28]): Active | Ratio IC50 (A549 [29]): 2 | Activity (SMMC-7721): Dde | Activity (A2780 [30]): Dde | selectivity ratio [31]: 145 | Activity (A549 [32]): 0.2 g

Reference: ChEMBL document CHEMBL5154799, “Discovery of a Novel Stilbene Derivative as a Microtubule Targeting Agent Capable of Inducing Cell Ferroptosis” (J Med Chem, 2022)
